Data taken from paper PMC10917775, “Endogenous stimuli-responsive separating microneedles to inhibit hypertrophic scar through remodeling the pathological microenvironment” (Nature Communications, 2024).
Peptide text beside a SMILES is read from it. * marks the point of attachment. Acetyl(5-fluorouracil-1-yl) = O=C(Cn1cc(F)c(=O)[nH]c1=O)*; Methacryloyl = C=C(C)C(=O)*

Columns and labels:
NIH/3T3 fibroblasts [1] = test: CCK-8 cell viability / cytotoxicity assay; type: cell-based; settings: for inhibitory effect on fibroblasts compared among 5-FuA, 5-FuA-Pep-MA and 5-FuA-Pro-Pro: all the concentrations (80, 125, 250 μM), 48 h, CCK-8, one-way ANOVA, n = 4
Description: In vitro cell viability and cytotoxicity. The CCK-8 assays were used to detect the cytotoxicity of
5-Fu and 5-Fu derivatives towards NIH/3T3 fibroblasts. Briefly, NIH/3T3 fibroblasts were cultured
with DMEM medium (containing 10% FBS and 1% penicillin-streptomycin) at 37 °C with 5% CO2.
Then, NIH/3T3 fibroblasts were seeded in 96-well plates at a density of 5 × 10^3 cells/well and
cultured for 12 h to adhere to the bottom of the plates. Subsequently, the medium was replaced with
concentrations of 80, 125, 250 μM, respectively. The cells treated with the neat medium were taken
as the control group. After 48 h of incubation, the CCK-8 kit was added, and the absorption of each
well at 450 nm was measured with a microplate reader (Multiskan MK3, ThermoFisher Scientific,
USA) to calculate the cell viability.

rabbit ear HS model = test: In vivo HS inhibition study, scar elevation index from H&E sections; set-up: species or system rabbits (Oryctolagus cuniculus); settings: after the 3rd administration (once a week for 3 weeks), before treatment 3.5 in drug-loaded MNs group, untreated HS group 3.3, 5-Fu injection 120 μg per lesion, mean of n = 3
Description: We investigated therapeutic effects of separating MNs on HS model in rabbit ears. Among the 15 rabbits, three rabbits were used as the control group (normal skin, NS), and the other 12 rabbits were used to establish HS model. The rabbit ear HS model was established according to a standard method, i.e., 4 HS lesions on each ear and 96 in total. Briefly, the rabbits were anesthetized with sodium pentobarbital (30 mg/kg) and operated under sterile conditions. Then, 4 round-shaped wounds of 7 mm diameter were created on the ventral surface of each ear, which were kept away from the central auricular artery and the periauricular vein. The epidermis, dermis, and perichondrium in each wound was removed thoroughly. After the procedures, the wounds were washed with 0.1% benzalkonium chloride solution to sterilize. In the following 2 weeks, after the rabbits were anesthetized, the newly formed wound tissues were removed to accelerate the formation of HS. […]
The three rabbits without treatment were taken as the control group (group 1, NS). […] The macroscopic images were recorded on the 21st day (before administration), the 29th day (1 week after the 1st administration), the 36th day (1 week after the 2nd administration), the 43rd day (1 week after the 3rd administration) and the 50th day (1 week follow-up). […]

[2] = set-up: method as in earlier work; settings: in blood circulation; ref Oncol. Lett. 2018, 15, 7175; Cancer Res. 1978, 38, 3479; Cancer Biol. Ther., 2012, 13, 1407; Cancer Chemother. Pharmacol. 2013, 71, 351; Biomater. Sci. 2017, 5, 502; cited from earlier work
From the text: Response: Thanks for the questions. […] Corticosteroids could reduce inflammation response, promote vasoconstrictive effect, and inhibit fibroblast proliferation to treat HS.

NIH/3T3 fibroblasts [3] = test: In vitro wound scratch (migration) assay; type: cell-based; settings: 80 μM drug with 0.5% FBS, after 48 h of incubation, Image J, n = 3, control almost complete closure within 48 h
Description: In vitro wound scratch assay. Wound scratch assays were used to evaluate the migration of
NIH/3T3 fibroblasts were seeded into 24-well plates at a density of 2 × 10^4 cells/well for 8 h. Then,
the sterile pipette tips were used to draw the scratch in the center of the wells, and the cells scratched
off were washed away with PBS for 3 times. 500 μL of drug solutions consisting of 80 μM of 5-

[4] = ROS-responsive cleavage of prodrug by H2O2 (HPLC); type: physicochemical; settings: PBS with 10, 50, 100 and 300 μM H2O2, 37 °C, 24-120 h, HPLC peak area, n = 3
From the text: pathological microenvironment of HS tissues determined the drug release rate and […]
Indeed, the size, thickness and duration vary in patients with HS, which could affect the amount of drug needed. […]
fibroblasts/myofibroblasts and the more collagen fibers secreted. Therefore, we could adjust the frequency of treatment for different scar features (size, thickness and […]
3. Figure 3: The ROS response of 5-FuA-Pep-MA prodrug with different concentrations of H2O2 should be shown in both concentration and time.
We have revisited the relevant experiment.
Specifically, 5-FuA-Pep-MA prodrug was incubated with PBS containing different concentrations (10, 50, 100 and 300 μM) of H2O2 at 37 ℃, respectively . 50 μL solutio n was taken out at a pres et time (24, 48, 72, 96 and 120 h), which was analy zed by HPLC. […]
and concentration-dependent (Fig. 3g). […]
For the question3: As described in method:  The peak area obtained from the sample without H2O2 was recorded as A0, while the peak area obtained from the sample with H2O2 was recorded as Ac. The degradation rate was calculated by [(A0-Ac)/A0] À 100% to evaluate the ROS response of peptide prodrug […]
A direct observation of more 5-FU with more H2O2, by HPLC or other methods, either in-vitro or in-vivo, would be more convictive. For example, glucose responsive release of insulin was detected by insulin elisa kit, not the degradation of vesicles […]

[5] = system: human hypertrophic scar fibroblast (HSFb); test: Intracellular ROS scavenging (ROS assay kit, DCFH-DA, CLSM); type: cell-based; settings: HSFb stimulated with ROSup, 5-FuA-Pep-MA 50, 100 and 200 μM, 12 h, with increased concentration
Description: The migration of cells was imaged with an inversion microscope at 0, 24 and 48 h. The area of the scratch was analyzed by Image J, and the wound healing rate (WHR) was calculated according to the following equation: WHR (%) = (A0 − At)/A0 × 100%, where A0 and At represented the area of scratch at 0 h and t h, respectively.
Intracellular ROS scavenging. ROS assay kit was used to observe the elimination of intracellular ROS by 5-FuA-Pep-MA. Specifically, HSFbs were seeded in 8-well confocal dishes at a density of 1 × 10^4 cells/well and cultured for 12 h to adhere to the bottom of the dishes. […]
Immunohistochemical, fluorescence and immunofluorescence staining of HS tissues. The ROS levels in HS tissues were measured by the fluorescence and immunofluorescence methods on day
43rd. […] The expression of MMP2 and MMP9 in HS tissues were measured by immunohistochemistry and immunofluorescence methods on day 43rd. […]
RNA sequencing and sample collection. […] RNA integrity was assessed using the RNA Nano 6000 Assay Kit of the Bioanalyzer 2100 system (Agilent Technologies, CA, USA). PCR products were purified (AMPure XP system) and library quality was assessed on the Agilent Bioanalyzer 2100 system. […]
Quality control. Firstly, raw data (raw reads) of fastq format were processed through in-house perl scripts. […]

| SMILES | cell viability (NIH/3T3 fibroblasts [1]; 250 μM, 48 h incubation, CCK-8, absorption at 450 nm, mean of n = 4) [%] | scar elevation index (SEI) (rabbit ear HS model) | half-life [2] [min] | wound healing rate (NIH/3T3 fibroblasts [3]) [%] | inhibitory effect on fibroblasts compared among 5-FuA, 5-FuA-Pep-MA and 5-FuA-Pro-Pro (NIH/3T3 fibroblasts [1]) | ROS-responsive cleavage rate [4] | intracellular ROS fluorescence intensity [5] |
| --- | --- | --- | --- | --- | --- | --- | --- |
| O=c1[nH]cc(F)c(=O)[nH]1 [5-Fu, 5-Fluorouracil] | 46.9 | 2.2 | 10 to 20 | – | – | – | – |
| O=C(O)Cn1cc(F)c(=O)[nH]c1=O [5-FuA, 5-Fuorouracil-1-acetic acid] | – | – | – | 48.3 | no significant difference | – | – |
| C=C(C)C(=O)NCCCC[C@H](NC(=O)[C@@H]1CCCN1C(=O)[C@@H]1CCCN1C(=O)[C@@H]1CCCN1C(=O)Cn1cc(F)c(=O)[nH]c1=O)C(N)=O [5-FuA-Pep-MA] ({Acetyl(5-fluorouracil-1-yl)}-PPPK(Methacryloyl)-NH2) | – | – | – | 51.6 | no significant difference | positively correlated with H2O2 concentrations and incubation time | significantly reduced |
| O=C(O)[C@@H]1CCCN1C(=O)[C@@H]1CCCN1C(=O)Cn1cc(F)c(=O)[nH]c1=O [5-FuA-Pro-Pro] | – | – | – | 53.2 | no significant difference | – | – |
